According to patent US8404283B2, “Standardized plant extract, process for obtaining the same and uses thereof” (Eurofarma Laboratorios Ltda, priority 2007, dated 2013):

Experiments:
mice = details: cited from earlier work
Swiss Webster mice [1] = assay: formalin induced pain model (Phase I, Phase II, edema); format: in vivo; details: oral administration
From the text: This model is more specific than the acetic acid induced abdominal contortion model. It allows the assessment of two distinct types of pain: the pain of neurogenic origin (direct stimulation of the nociceptive neurons) and of inflammatory origin, representing the tonic response to pain, accompanied by an inflammatory response related to the release of chemical inflammation mediators. […] Immediately after the formalin injection, the animals were placed under a glass dome surrounded by mirrors in order to facilitate observation of the ensuing behaviour. Observation commenced immediately, initially timing the reaction to pain during the first 5 minutes after the formalin injection (corresponding to the period of neurogenic pain). Following an interval of 10 minutes, the licking times were recorded for a further 15 minutes (corresponding to the inflammatory pain). Total test time was of 30′.
At the end of this observation period, the animals were sacrificed by cervical displacement and the rear paws were removed at the tibiotarsal region and weighed on an analytical balance to quantify the edema induced by the formalin. The difference in weight (in mg) between the right paw (injected with formalin) and the left paw (injected with saline) was considered the rate of edema. […] Each analysis was performed using 8 to 10 male animals (Swiss Webster mice) weighing between 25 and 30 g.
(§1) The dose was calculated individually for each animal with the quantity in mg/kg (mg/1.000 g) of the substance to be administrated being in accordance to its weight. The injected volume of the solutions followed the rule of 0.1 ml/10 g of the animal's weight.
The animals were observed after the intraplantar injection of formalin for a period of 30 minutes. The reaction time (time in which the animal remains licking the injected paw) is then quantified in each of the phases: phase I (neurogenic pain—5 min observation) and phase II (inflammatory pain—15 min observation).
(§2) Parametric statistical tests were performed on the models described above. The results were submitted to ANOVA variance analysis followed by appropriate post hoc tests. […] The statistical analyses of the results were performed by means of variance analysis followed by the multiple comparison test using the Dunnett method, when appropriate. Values of p<0.05 were considered to indicate significance. The DI50 was estimated by means of individual experiments using GraphPad Instat statistical software.

Swiss Webster mice [2] = assay: abdominal contortion model induced by acetic acid; format: in vivo; details: oral administration; for DI50: dose reducing response by 50%, 95% limits; for IM (%): inhibition of number of contortions
Experimental: The experimental acetic acid induced abdominal contortion model allows assessment of the antinociceptive activity of various substances that act both at central and peripheral levels. Nociceptive response is induces by the intraperitonal injection of acetic acid (0.6%) diluted in saline solution (0.9%). The abdominal contortions consist in the contraction of the abdominal muscles combined with the extension of one of the rear paws.
as §1, with “Each analysis was performed using 8 to 10 male animals (Swiss Webster mice) weighing between 25 and 30 g. The dose” for “The dose”
as §2

SMILES	analgesia, potency relative to aspirin (mice; Meyre-Silva et al. 1999)	DI50 (Swiss Webster mice [1]; Edema)	IM (%) (Swiss Webster mice [1]; Edema)	DI50 (Swiss Webster mice [1]; Phase I (neurogenic))	IM (%) (Swiss Webster mice [1]; Phase I (neurogenic))	DI50 (mg/kg) (Swiss Webster mice [1]; Phase II (inflammatory))	IM (%) (Swiss Webster mice [1]; Phase II (inflammatory))	DI50 (Swiss Webster mice [2])	IM (%) (Swiss Webster mice [2])	DI50 (mg/kg) (Swiss Webster mice [1]; Phase I (neurogenic))	analgesic effect on acetic acid induced abdominal contortions (mice; Meyre-Silva et al. 1998, 1999)
COc1cc2oc(-c3ccc(O)cc3)cc(=O)c2c(O)c1[C@@H]1O[C@H](CO)[C@@H](O)[C@H](O)[C@H]1O[C@@H]1O[C@@H](C)[C@H](O)[C@@H](O)[C@H]1O [2″-O-rhamnosylswertisin]	approximately 16 times										
CC(=O)Oc1ccccc1C(=O)O [AAS]		>500 mg/kg	31.7%	>500 mg/kg	12.7%	408.87 (391.47-427.03) mg/kg	65.7%	364.1 mg/kg	64.5%		
O=C(O)Cc1ccccc1Nc1c(Cl)cccc1Cl [Diclophenac]		>500 mg/kg	33.7%		68.8%		82.5%	443.07 mg/kg	51.6%	407.48 (357.56-464.37) mg/kg	
COc1ccc2c(c1)c(CC(=O)O)c(C)n2C(=O)c1ccc(Cl)cc1 [Indomethacin]		>300 mg/kg	36.5%	>300 mg/kg	7.2%	263.42 (239.83-289.35) mg/kg	53.1%	189.95 mg/kg	72.0%		
COc1cc2oc(-c3ccc(O)cc3)cc(=O)c2c(O)c1[C@@H]1O[C@H](CO)[C@@H](O)[C@H](O)[C@H]1O [swertisin]											did not have an analgesic effect
